Laboratory results published in PubChem BioAssay (NCI).
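Growth conditions: 96-well plates. Treatment: test compound, 48 hours, 5 concentrations. Analysis: linear interpolation between bracketing concentrations; unreached endpoints set to highest concentration. The concentration for 50% growth inhibition is given as GI50. TGI marks complete inhibition of growth.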

How the values were obtained:
Assay in all cases: NCI anticancer screen, dose series, 48 h
HCC-2998 colon = tested on: HCC-2998 colon
HCT-15 colon = tested on: HCT-15 colon
K-562 leukemia = tested on: K-562 leukemia
OVCAR-3 ovarian = tested on: OVCAR-3 ovarian
OVCAR-5 ovarian = tested on: OVCAR-5 ovarian
RXF 393 renal = tested on: RXF 393 renal
SK-MEL-2 melanoma = tested on: SK-MEL-2 melanoma
SK-MEL-28 melanoma = tested on: SK-MEL-28 melanoma
U251 CNS = tested on: U251 CNS
UACC-62 melanoma = tested on: UACC-62 melanoma

SMILES	TGI (HCC-2998 colon) [µM]	TGI (HCT-15 colon) [µM]	TGI (K-562 leukemia) [µM]	TGI (OVCAR-3 ovarian) [µM]	TGI (OVCAR-5 ovarian) [µM]	TGI (RXF 393 renal) [µM]	TGI (SK-MEL-2 melanoma) [µM]	TGI (SK-MEL-28 melanoma) [µM]	TGI (U251 CNS) [µM]	TGI (UACC-62 melanoma) [µM]	GI50 (HCC-2998 colon) [µM]	GI50 (HCT-15 colon) [µM]	GI50 (K-562 leukemia) [µM]	GI50 (OVCAR-3 ovarian) [µM]	GI50 (OVCAR-5 ovarian) [µM]	GI50 (RXF 393 renal) [µM]	GI50 (SK-MEL-2 melanoma) [µM]	GI50 (SK-MEL-28 melanoma) [µM]	GI50 (U251 CNS) [µM]	GI50 (UACC-62 melanoma) [µM]
NC(CCP(=O)(O)CCC1C=CC=CC1)C(=O)O (stereo not given)	> 100	> 100	> 100	> 100	> 100	> 100	> 100	> 100	> 100	> 100	–	–	–	–	–	–	–	–	–	–
CC(C)(C)[Si](C)(C)OCC1CCC(n2cnc3c(N)ncnc32)O1 (stereo not given)	–	> 100	> 100	> 100	> 100	> 100	> 100	> 100	> 100	> 100	–	–	–	–	–	–	–	–	–	–
COC(=O)c1ccc(N=NN(C)COc2ccc([N+](=O)[O-])cc2)cc1	> 100	> 100	> 100	> 100	> 100	> 100	> 100	> 100	> 100	> 100	–	–	–	–	–	–	–	–	–	–
O=[N+]([O-])c1ccc(Nc2nc3ccccc3s2)cc1	84	> 100	35	57.7	84.6	28.9	81	> 100	39.3	58.7	–	–	–	–	–	–	–	–	–	–
COc1cc(C2=C(C#N)C(N)OC3=C2COc2ccccc23)cc(OC)c1OC (stereo not given)	56.8	> 100	> 100	34.3	> 100	–	> 100	> 100	33.2	> 100	–	–	–	–	–	–	–	–	–	–
CC1=CC(=O)C(=O)C2=C1OC1(C2)C(C)CCC2C3(C)CCC(O)C(C)(C)C3CCC21C (stereo not given)	34	42.1	54.1	34.6	37.2	33.2	–	42.9	29.9	36.1	–	–	–	–	–	–	–	–	–	–
COC1CC(OC2CCC3(C)C(CCC45CCC(C6=CC(=O)OC6)C(C)(CCC43)C5=O)C2)OC(C)C1O (stereo not given)	44.4	52.2	> 100	82	> 100	89.4	> 100	> 100	> 100	> 100	–	–	–	–	–	–	–	–	–	–
NNc1nc2ccccc2s1	> 100	> 100	> 100	–	> 100	> 100	> 100	> 100	> 100	> 100	–	–	–	–	–	–	–	–	–	–
Nc1ccc2c3c(n(CCCCl)c(=O)c2c1)-c1cc2c(cc1C3=O)OCO2	> 100	> 100	> 100	> 100	> 100	> 100	> 100	> 100	> 100	> 100	> 100	> 100	> 100	> 100	> 100	55.1	> 100	> 100	> 100	> 100
CCC(=O)NC(Nc1ccc(O)cc1)(C(F)(F)F)C(F)(F)F	> 100	> 100	> 100	> 100	> 100	> 100	> 100	> 100	> 100	> 100	–	–	–	–	–	–	–	–	–	–
CC12CCC(C(=O)N3CC=CCC3)(OC1=O)C2(C)C (stereo not given)	> 100	> 100	> 100	> 100	> 100	> 100	> 100	> 100	> 100	> 100	–	–	–	–	–	–	–	–	–	–
c1cn2cc(-c3ccc4ncn(C5CCCCC5)c4c3)nc(-c3ccc4c(c3)ncn4C3CCCCC3)c2n1	3.45	–	> 100	3.36	–	3	3.35	3.41	3.65	–	1.81	–	2.58	1.83	–	1.51	1.74	1.81	1.91	–
O=C(O)C1Cc2c([nH]c3ccccc23)C=N1 (stereo not given)	> 100	> 100	> 100	> 100	> 100	> 100	> 100	> 100	> 100	> 100	–	–	–	–	–	–	–	–	–	–
